{
  "source": "paper PMC11491004",
  "about": "“CHF6523 data suggest that the phosphoinositide 3-kinase delta isoform is not a suitable target for the management of COPD” (Respiratory Research, 2024)",
  "key": {"[1]": {"experiment": "CHF6523 plasma pharmacokinetics in patients with COPD", "format": "in vivo, human", "settings": "for AUC0–30 min / AUC0–12 h / Cmax: 2 mg twice daily inhaled", "experimental": "All assessment timings were based on the morning dose. Pre-dose on Days 1 and 28 of each treatment period, blood samples were taken for pharmacokinetic analyses, followed by forced oscillation (including slow vital capacity manoeuvres for inspiratory capacity [IC] and vital capacity [VC]), spirometry (forced expiratory volume in 1 s [FEV1] and forced vital capacity [FVC]), and the COPD Assessment Test (CAT). Blood samples were also taken up to 12 h post-dose on Days 1 and 28 for pharmacokinetic analyses, with blood samples for biomarker assessment pre-dose on Day 1 and 2 h post-dose on Day 28, and spirometry pre-dose on Days 20 and 24. Sputum was induced prior to each treatment period for baseline determination of biomarkers, and post-dose on Day 20 for collection of phosphatidylinositol (3,4,5)-trisphosphate (PIP3), and on Days 24 and 28 for collection of biomarkers.\nPharmacokinetic assessments were performed under fasting conditions. On days when pharmacokinetic samples were taken, study drug was administered in the morning at the clinical site after a fast of ≥ 10 h (water was allowed), with food or fluid intake not allowed until 1 h post-dose, with the exception of 100 mL of water if the patient coughed as a result of inhalation. Starting from 1 h post-dose and for the following 6 h, patients drank ≥ 240 mL of water every 2 h, with breakfast and lunch served approximately 3 and 5 h after morning study drug, and, on Day 1, dinner at least 2 h before or 1 h after evening drug administration. No intake of alcohol, grapefruit, or xanthine/caffeine containing beverages or food was allowed from 48 h prior to each intake of study medication and until the last visit procedure, with strenuous exercise prohibited for 24 h before any spirometry measurement.\nBlood samples of 2 mL were collected in K2-EDTA tubes at pre-dose and at 10, 15, 30, and 45 min and 1, 1½, 2, 3, 4, 6, 8 and 12 h post-dose on Days 1 and 28, and pre-dose on Days 20 and 24. Collected samples were centrifuged within 1 h after blood in a refrigerated centrifuge (at about +4°C) at about 2000 x g for 10 min. The plasma obtained was transferred into two polypropylene tubes (at least 500 μL into the first, and the remaining volume into the second), then stored at or below –80°C, at the clinical centre. The tubes were then transferred (frozen) to a central laboratory, and stored at –80°C until submitted for analysis with a validated liquid chromatography with tandem mass spectrometry (LC/MS-MS) method. Two validated methods were used to cover the range of possible concentrations. The first one, the so-called low-range method, measured CHF6523 over the calibration range 0.02–1.00 ng/mL. The second, the high-range method, measured CHF6523 over the calibration range 1.00–50.0 ng/mL. Overall, the lower limit of quantification in this study (LLoQ) was of 0.02 ng/mL."}, "[2]": {"tested_on": "proteins in sputum", "experiment": "Olink proteomics in sputum (Target 96 Inflammation and Target 48 Cytokine panels)", "format": "in vivo, human", "experimental": "For the proteomics evaluation, sputum samples were run on the Target 48 Cytokine panel, and the Target 96 Inflammation panel (Olink Protemics, Uppsala, Sweden). In the Target 48 Cytokine panel, 45 cytokines were quantified in terms of their absolute concentration. For the Target 96 Inflammation panel, 92 proteins involved in inflammation processes were evaluated, with the results expressed as Normalized Protein eXpression (NPX; the manufacturer’s arbitrary unit, in Log2 scale). […] In the statistical model, using sputum Target 96 and 48 data, change from pre-dose to post-dose expression were used as dependent variable, and patient, period, treatment and pre-dose expression as independent variable."}, "[3]": {"tested_on": "eosinophilic/type-2 inflammation", "settings": "series of preclinical studies in rat or mouse models of airway inflammation; cited from earlier work"}},
  "data": [
    {"smiles": "C[C@@H](c1oc(=O)c2ccccc2c1-c1cccc(CN2CCN(C)CC2)c1)n1nc(-c2cncc(O)c2)c2c(N)ncnc21", "note": "[CHF6523]", "values": [
      {"measurement": "Time of peak of mean plasma concentration", "setting": "[1]; Day 1", "result": 15, "unit": "min"},
      {"measurement": "median tmax", "setting": "[1]; Day 1", "result": 15, "unit": "min"},
      {"measurement": "median tmax", "setting": "[1]; Day 28", "result": 11, "unit": "min"},
      {"measurement": "Time of peak of mean plasma concentration", "setting": "[1]; Day 28 (first post-dose timepoint)", "result": 10, "unit": "min"},
      {"measurement": "AUC0–30 min", "setting": "[1]; plasma, Day 1, mean (SD)", "result": "3.28 (1.64) ng.h/mL"},
      {"measurement": "AUC0–12 h", "setting": "[1]; plasma, Day 1, mean (SD)", "result": "8.10 (4.11) ng.h/mL"},
      {"measurement": "Cmax", "setting": "[1]; plasma, Day 1, mean (SD)", "result": "9.10 (4.42) ng/mL"},
      {"measurement": "tmax", "setting": "[1]; plasma, Day 1, median (range)", "result": "0.25 (0.15–2.00) h"},
      {"measurement": "Ctrough", "setting": "[1]; plasma, Day 20 pre-dose, mean (SD)", "result": "0.10 (0.05) ng/mL"},
      {"measurement": "Ctrough", "setting": "[1]; plasma, Day 24 pre-dose, mean (SD)", "result": "0.09 (0.06) ng/mL"},
      {"measurement": "AUC0–30 min", "setting": "[1]; plasma, Day 28, mean (SD)", "result": "4.21 (2.05) ng.h/mL"},
      {"measurement": "AUC0–12 h", "setting": "[1]; plasma, Day 28, mean (SD)", "result": "10.50 (5.32) ng.h/mL"},
      {"measurement": "Cmax", "setting": "[1]; plasma, Day 28, mean (SD)", "result": "11.70 (5.54) ng/mL"},
      {"measurement": "CL/Fss (apparent total body clearance at steady state)", "setting": "[1]; plasma, Day 28, dose/AUC 0-12 h, mean (SD)", "result": "239 (119) L/h"},
      {"measurement": "Cav", "setting": "[1]; plasma, Day 28, mean (SD)", "result": "0.88 (0.45) ng/mL"},
      {"measurement": "Cmin", "setting": "[1]; plasma, Day 28, mean (SD)", "result": "0.09 (0.03) ng/mL"},
      {"measurement": "tmax", "setting": "[1]; plasma, Day 28, median (range)", "result": "0.18 (0.15–0.27) h"},
      {"measurement": "tmin", "setting": "[1]; plasma, Day 28, median (range)", "result": "11.92 (8.13–12.17) h"},
      {"measurement": "Ctrough", "setting": "[1]; plasma, Day 28 pre-dose, mean (SD)", "result": "0.09 (0.06) ng/mL"},
      {"measurement": "Fold change in the Olink panels: IL-1B", "setting": "[2]", "result": 0.771},
      {"measurement": "Fold change in the Olink panels: IL-6", "setting": "[2]", "result": 1.516},
      {"measurement": "Fold change in the Olink panels: IL-8", "setting": "[2]", "result": 1.151},
      {"measurement": "Fold change in the Olink panels: MCP-1", "setting": "[2]", "result": 0.732},
      {"measurement": "Fold change in the Olink panels: TNF", "setting": "[2]", "result": 0.821},
      {"measurement": "Proteins significantly modulated by treatment, of the 74 evaluated", "setting": "[2]; FDR < 0.05", "result": "none were significantly modulated by treatment"},
      {"measurement": "Inhibition of eosinophilic/type-2 inflammation", "setting": "[3]", "result": "potent inhibition of eosinophilic/type-2 inflammation comparable to that of nemiralisib"}
    ]}
  ]
}
